According to ChEMBL document CHEMBL3044923, “Synthesis of 9-O-glycosyl-berberine derivatives and bioavailability evaluation” (Med Chem Res, 2012):

Tests used:
Parameters in all cases: dose 100 mg/kg, route oral
Details in all cases: in vivo
Rattus norvegicus [1] = test: Tmax in SPF Rattus norvegicus (rat) at 100 mg/kg, po; assay type: ADME, organism-based
Rattus norvegicus [2] = test: Cmax in SPF Rattus norvegicus (rat) at 100 mg/kg, po; assay type: ADME, organism-based
Rattus norvegicus [3] = test: AUC in SPF Rattus norvegicus (rat) at 100 mg/kg, po; assay type: ADME, organism-based, Plasma
Rattus norvegicus [4] = test: Half life in SPF Rattus norvegicus (rat) at 100 mg/kg, po; assay type: ADME, organism-based
Plasma = test: Stability in SPF Rattus norvegicus (rat) plasma assessed as berberine formation at 100 mg/kg, po; assay type: ADME, organism-based

Compound | Tmax (Rattus norvegicus [1]) | Cmax (Rattus norvegicus [2]) | AUC (Rattus norvegicus [3]) | t1/2 (Rattus norvegicus [4]) | Stability (Plasma)
COc1ccc2cc3[n+](cc2c1OC1OC[C@@H](O)[C@@H](O)[C@@H]1O)CCc1cc2c(cc1-3)OCO2 (stereo partly drawn) [9-O-ARABINOSYL-BERBERINE] | 3 h | 0.0487 µg/mL | 0.205146 µg·h/mL | 7.43 h | Unstable
CCCCCCCCCCCCOc1c(OC)ccc2cc3[n+](cc12)CCc1cc2c(cc1-3)OCO2 [9-O-DODECYL-BERBERINE] | 3.5 h | 0.00371 µg/mL | 0.014592 µg·h/mL | 7.86 h | Stable
COc1ccc2cc3[n+](cc2c1OC[C@H](O)[C@H](O)CO)CCc1cc2c(cc1-3)OCO2 [9-O-ERYTHROL-BERBERINE] | 3 h | 0.0375 µg/mL | 0.180316 µg·h/mL | 7.31 h | Unstable
COc1ccc2cc3[n+](cc2c1OC1O[C@H](CO)[C@@H](O)[C@H](O)[C@H]1O)CCc1cc2c(cc1-3)OCO2 (stereo partly drawn) [9-O-GLUCOSYL-BERBERINE] | 3 h | 0.0634 µg/mL | 0.26894 µg·h/mL | 7.58 h | Unstable
CCCCCCCCOc1c(OC)ccc2cc3[n+](cc12)CCc1cc2c(cc1-3)OCO2 [9-O-OCTYL-BERBERINE] | 3 h | 0.00439 µg/mL | 0.017329 µg·h/mL | 7.85 h | 
COc1ccc2cc3[n+](cc2c1OC)CCc1cc2c(cc1-3)OCO2 [BERBERINE] | 2 h | 0.00679 µg/mL | 0.024184 µg·h/mL | 7.88 h | 
